Results taken from PubChem BioAssay (NCI).
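The compound was tested at five concentrations on cells cultured in 96-well plates, with a 48-hour exposure period. Here, GI50 denotes the concentration required for 50% inhibition of growth. TGI: total growth inhibition.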

What was measured:
Test in all cases: growth of human tumour cells (NCI), 48 h
[1] = tested on: HS 578T breast
[2] = tested on: NCI-H460 lung
[3] = tested on: HT29 colon
[4] = tested on: SNB-75 CNS
[5] = tested on: HOP-62 NSCLC
[6] = tested on: SF-539 CNS
[7] = tested on: SK-OV-3 ovarian
[8] = tested on: BT-549 breast
[9] = tested on: HCC-2998 colon
[10] = tested on: NCI-H522 lung
[11] = tested on: SK-MEL-28 melanoma
[12] = tested on: IGROV1 ovarian
[13] = tested on: UACC-257 melanoma
[14] = tested on: M14 melanoma
[15] = tested on: UACC-62 melanoma
[16] = tested on: MDA-MB-435
[17] = tested on: SN12C renal
[18] = tested on: 786-0 renal
[19] = tested on: MCF7 breast
[20] = tested on: LOX IMVI melanoma
[21] = tested on: SW-620 colon
[22] = tested on: OVCAR-4 ovarian
[23] = tested on: UO-31 renal
[24] = tested on: MALME-3M melanoma
[25] = tested on: CCRF-CEM leukemia
[26] = tested on: EKVX NSCLC
[27] = tested on: TK-10 renal
[28] = tested on: CAKI-1 renal
[29] = tested on: HCT-116 colon
[30] = tested on: OVCAR-5 ovarian
[31] = tested on: NCI-H23 lung
[32] = tested on: SF-268 CNS
[33] = tested on: SK-MEL-5 melanoma
[34] = tested on: SNB-19 CNS
[35] = tested on: ACHN renal
[36] = tested on: A549 NSCLC
[37] = tested on: NCI-H226 lung
[38] = tested on: KM12 colon
[39] = tested on: OVCAR-3 ovarian
[40] = tested on: SK-MEL-2 melanoma
[41] = tested on: SR leukemia
[42] = tested on: MOLT-4 leukemia
[43] = tested on: NCI/ADR-RES ovarian
[44] = tested on: U251 CNS
[45] = tested on: HCT-15 colon
[46] = tested on: RPMI-8226 leukemia
[47] = tested on: K-562 leukemia
[48] = tested on: COLO 205 colon
[49] = tested on: DU-145 prostate
[50] = tested on: MDA-MB-231 breast
[51] = tested on: RXF 393 renal
[52] = tested on: A498 renal
[53] = tested on: SF-295 CNS
[54] = tested on: PC-3 prostate
[55] = tested on: HOP-92 NSCLC
[56] = tested on: OVCAR-8 ovarian
[57] = tested on: HL-60(TB) leukemia
[58] = tested on: T-47D breast

Question: Which GI50 [1] does the source give for `C[C@H](c1ccc(F)cc1CCCC(=O)O)N(c1cc(F)ccc1F)S(=O)(=O)c1ccc(Cl)cc1` here?
Answer: The GI50 was 20 µM.

Question: What about the TGI [1] of the same compound?
Answer: The TGI was over 85 µM.

Question: What about the GI50 [2] of the same compound?
Answer: The GI50 was 20.6 µM.

Question: What about the TGI [2] of the same compound?
Answer: Its TGI is 52.8 µM.

Question: And the GI50 [3]?
Answer: Its GI50 is 35.3 µM.

Question: And the TGI [3]?
Answer: Its TGI is over 100 µM.

Question: What about the GI50 [4] of the same compound?
Answer: The GI50 was 29.4 µM.

Question: What about the TGI [4] of the same compound?
Answer: Its TGI is over 91.3 µM.

Question: And the GI50 [5]?
Answer: Its GI50 is 24.4 µM.

Question: What about the TGI [5] of the same compound?
Answer: The TGI was over 70.2 µM.

Question: And the GI50 [6]?
Answer: The GI50 was 24.5 µM.

Question: And the TGI [6]?
Answer: Its TGI is 67.9 µM.

Question: And the GI50 [7]?
Answer: The GI50 was 42.3 µM.

Question: What about the TGI [7] of the same compound?
Answer: Its TGI is over 100 µM.

Question: And the GI50 [8]?
Answer: The GI50 was 22.4 µM.

Question: And the TGI [8]?
Answer: The TGI was 68.8 µM.

Question: What about the GI50 [9] of the same compound?
Answer: Its GI50 is 20.9 µM.

Question: What about the TGI [9] of the same compound?
Answer: Its TGI is 59.4 µM.

Question: What about the GI50 [10] of the same compound?
Answer: Its GI50 is 26 µM.

Question: What about the TGI [10] of the same compound?
Answer: The TGI was over 93.3 µM.

Question: What about the GI50 [11] of the same compound?
Answer: Its GI50 is 22.1 µM.

Question: And the TGI [11]?
Answer: Its TGI is 65.5 µM.

Question: What about the GI50 [12] of the same compound?
Answer: The GI50 was 31.7 µM.

Question: What about the TGI [12] of the same compound?
Answer: Its TGI is over 92.4 µM.

Question: What about the GI50 [13] of the same compound?
Answer: Its GI50 is 26.9 µM.

Question: What about the TGI [13] of the same compound?
Answer: The TGI was over 100 µM.

Question: What about the GI50 [14] of the same compound?
Answer: The GI50 was 22.6 µM.

Question: And the TGI [14]?
Answer: The TGI was over 80.2 µM.

Question: And the GI50 [15]?
Answer: The GI50 was 14.2 µM.

Question: And the TGI [15]?
Answer: The TGI was 39.2 µM.

Question: What about the GI50 [16] of the same compound?
Answer: Its GI50 is 20.6 µM.

Question: And the TGI [16]?
Answer: Its TGI is 51.3 µM.

Question: And the GI50 [17]?
Answer: The GI50 was 32.2 µM.

Question: And the TGI [17]?
Answer: Its TGI is over 100 µM.

Question: What about the GI50 [18] of the same compound?
Answer: Its GI50 is 31.2 µM.

Question: What about the TGI [18] of the same compound?
Answer: Its TGI is over 100 µM.

Question: What about the GI50 [19] of the same compound?
Answer: The GI50 was 31.2 µM.

Question: What about the TGI [19] of the same compound?
Answer: Its TGI is over 100 µM.

Question: What about the GI50 [20] of the same compound?
Answer: Its GI50 is 29.2 µM.

Question: And the TGI [20]?
Answer: Its TGI is over 100 µM.

Question: What about the GI50 [21] of the same compound?
Answer: The GI50 was 34.6 µM.

Question: What about the TGI [21] of the same compound?
Answer: The TGI was over 100 µM.

Question: What about the GI50 [22] of the same compound?
Answer: Its GI50 is 26.8 µM.

Question: And the TGI [22]?
Answer: The TGI was over 89.9 µM.

Question: What about the GI50 [23] of the same compound?
Answer: The GI50 was 25.4 µM.

Question: What about the TGI [23] of the same compound?
Answer: The TGI was over 100 µM.

Question: And the GI50 [24]?
Answer: The GI50 was 23.5 µM.

Question: And the TGI [24]?
Answer: Its TGI is 93.8 µM.

Question: And the GI50 [25]?
Answer: The GI50 was 19.3 µM.

Question: And the TGI [25]?
Answer: Its TGI is over 69.7 µM.

Question: What about the GI50 [26] of the same compound?
Answer: Its GI50 is 30 µM.

Question: What about the TGI [26] of the same compound?
Answer: The TGI was over 100 µM.

Question: And the GI50 [27]?
Answer: Its GI50 is 55.3 µM.

Question: And the TGI [27]?
Answer: The TGI was over 100 µM.

Question: And the GI50 [28]?
Answer: Its GI50 is 17.6 µM.

Question: And the TGI [28]?
Answer: The TGI was over 81.2 µM.

Question: What about the GI50 [29] of the same compound?
Answer: The GI50 was 19.4 µM.

Question: And the TGI [29]?
Answer: Its TGI is 47.1 µM.

Question: And the GI50 [30]?
Answer: The GI50 was 43.8 µM.

Question: And the TGI [30]?
Answer: The TGI was over 100 µM.

Question: And the GI50 [31]?
Answer: Its GI50 is 19.6 µM.

Question: What about the TGI [31] of the same compound?
Answer: Its TGI is 59 µM.

Question: What about the GI50 [32] of the same compound?
Answer: Its GI50 is 34.5 µM.

Question: And the TGI [32]?
Answer: Its TGI is over 100 µM.

Question: What about the GI50 [33] of the same compound?
Answer: The GI50 was 17.5 µM.

Question: What about the TGI [33] of the same compound?
Answer: The TGI was 38 µM.

Question: And the GI50 [34]?
Answer: Its GI50 is 27.9 µM.

Question: And the TGI [34]?
Answer: The TGI was over 100 µM.

Question: And the GI50 [35]?
Answer: The GI50 was 30.8 µM.

Question: What about the TGI [35] of the same compound?
Answer: Its TGI is over 100 µM.

Question: And the GI50 [36]?
Answer: The GI50 was 28.1 µM.

Question: And the TGI [36]?
Answer: The TGI was over 100 µM.

Question: And the GI50 [37]?
Answer: Its GI50 is 31 µM.

Question: And the TGI [37]?
Answer: Its TGI is over 100 µM.

Question: What about the GI50 [38] of the same compound?
Answer: The GI50 was 26.5 µM.

Question: And the TGI [38]?
Answer: Its TGI is over 100 µM.

Question: And the GI50 [39]?
Answer: Its GI50 is 19.6 µM.

Question: And the TGI [39]?
Answer: Its TGI is 44 µM.

Question: And the GI50 [40]?
Answer: Its GI50 is 19.7 µM.

Question: What about the TGI [40] of the same compound?
Answer: The TGI was 41.7 µM.

Question: What about the GI50 [41] of the same compound?
Answer: The GI50 was 30.4 µM.

Question: What about the TGI [41] of the same compound?
Answer: The TGI was 98.1 µM.

Question: And the GI50 [42]?
Answer: Its GI50 is 22.8 µM.

Question: And the TGI [42]?
Answer: Its TGI is over 83 µM.

Question: What about the GI50 [43] of the same compound?
Answer: Its GI50 is 30.6 µM.

Question: What about the TGI [43] of the same compound?
Answer: Its TGI is over 100 µM.

Question: And the GI50 [44]?
Answer: The GI50 was 31.9 µM.

Question: And the TGI [44]?
Answer: The TGI was over 100 µM.

Question: What about the GI50 [45] of the same compound?
Answer: Its GI50 is 22.3 µM.

Question: What about the TGI [45] of the same compound?
Answer: Its TGI is 74.7 µM.

Question: What about the GI50 [46] of the same compound?
Answer: Its GI50 is 30 µM.

Question: And the TGI [46]?
Answer: The TGI was over 88.5 µM.

Question: And the GI50 [47]?
Answer: The GI50 was 36.6 µM.

Question: What about the TGI [47] of the same compound?
Answer: The TGI was over 100 µM.

Question: And the GI50 [48]?
Answer: Its GI50 is 33.7 µM.

Question: And the TGI [48]?
Answer: The TGI was over 92.9 µM.

Question: And the GI50 [49]?
Answer: Its GI50 is 34 µM.

Question: And the TGI [49]?
Answer: Its TGI is over 100 µM.

Question: And the GI50 [50]?
Answer: The GI50 was 31.4 µM.

Question: What about the TGI [50] of the same compound?
Answer: The TGI was over 100 µM.

Question: And the GI50 [51]?
Answer: The GI50 was 21 µM.

Question: What about the TGI [51] of the same compound?
Answer: The TGI was over 79.7 µM.

Question: What about the GI50 [52] of the same compound?
Answer: Its GI50 is 13.1 µM.

Question: And the TGI [52]?
Answer: The TGI was 57.6 µM.

Question: And the GI50 [53]?
Answer: The GI50 was 23.1 µM.

Question: And the TGI [53]?
Answer: The TGI was over 75.9 µM.

Question: And the GI50 [54]?
Answer: Its GI50 is 26.5 µM.

Question: And the TGI [54]?
Answer: Its TGI is over 100 µM.

Question: What about the GI50 [55] of the same compound?
Answer: The GI50 was 17.9 µM.

Question: What about the TGI [55] of the same compound?
Answer: The TGI was over 82.5 µM.

Question: And the GI50 [56]?
Answer: The GI50 was 38 µM.

Question: And the TGI [56]?
Answer: The TGI was over 100 µM.

Question: And the GI50 [57]?
Answer: Its GI50 is 30.7 µM.

Question: What about the TGI [57] of the same compound?
Answer: Its TGI is over 95.1 µM.

Question: What about the GI50 [58] of the same compound?
Answer: Its GI50 is 19.2 µM.

Question: What about the TGI [58] of the same compound?
Answer: The TGI was over 83.9 µM.
